# Results reported in ChEMBL document CHEMBL5303766, “Data for DCP probe FHT-2344” (2022).
# The source made the active and inactive calls. The rule behind the calls is not given here.
# Experiments:
# [1] = target: T1, Phosphorylase b kinase gamma catalytic chain, liver/testis isoform (Homo sapiens) (UniProt P15735); experiment: PHKG2 SGC Tm panel (DSF); details: for ΔTm: Compound concentration 10.0 uM
# T1 sequence (whole entry): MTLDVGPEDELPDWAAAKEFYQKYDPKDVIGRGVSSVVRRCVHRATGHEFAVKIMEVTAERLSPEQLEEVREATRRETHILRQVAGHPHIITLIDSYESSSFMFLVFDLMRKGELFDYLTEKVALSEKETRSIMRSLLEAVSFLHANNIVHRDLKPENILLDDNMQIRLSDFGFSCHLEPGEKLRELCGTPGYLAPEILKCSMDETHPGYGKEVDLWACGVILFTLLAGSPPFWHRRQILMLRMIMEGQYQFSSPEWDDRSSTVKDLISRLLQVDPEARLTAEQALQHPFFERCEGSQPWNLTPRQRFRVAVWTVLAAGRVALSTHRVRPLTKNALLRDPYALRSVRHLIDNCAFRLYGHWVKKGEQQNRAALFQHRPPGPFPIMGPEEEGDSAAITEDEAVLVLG
# [2] = target: T2, Cytoplasmic tyrosine-protein kinase BMX (Homo sapiens) (UniProt P51813); experiment: BMX SGC Tm panel (DSF); details: for ΔTm: Compound concentration 10.0 uM
# T2 sequence (whole entry): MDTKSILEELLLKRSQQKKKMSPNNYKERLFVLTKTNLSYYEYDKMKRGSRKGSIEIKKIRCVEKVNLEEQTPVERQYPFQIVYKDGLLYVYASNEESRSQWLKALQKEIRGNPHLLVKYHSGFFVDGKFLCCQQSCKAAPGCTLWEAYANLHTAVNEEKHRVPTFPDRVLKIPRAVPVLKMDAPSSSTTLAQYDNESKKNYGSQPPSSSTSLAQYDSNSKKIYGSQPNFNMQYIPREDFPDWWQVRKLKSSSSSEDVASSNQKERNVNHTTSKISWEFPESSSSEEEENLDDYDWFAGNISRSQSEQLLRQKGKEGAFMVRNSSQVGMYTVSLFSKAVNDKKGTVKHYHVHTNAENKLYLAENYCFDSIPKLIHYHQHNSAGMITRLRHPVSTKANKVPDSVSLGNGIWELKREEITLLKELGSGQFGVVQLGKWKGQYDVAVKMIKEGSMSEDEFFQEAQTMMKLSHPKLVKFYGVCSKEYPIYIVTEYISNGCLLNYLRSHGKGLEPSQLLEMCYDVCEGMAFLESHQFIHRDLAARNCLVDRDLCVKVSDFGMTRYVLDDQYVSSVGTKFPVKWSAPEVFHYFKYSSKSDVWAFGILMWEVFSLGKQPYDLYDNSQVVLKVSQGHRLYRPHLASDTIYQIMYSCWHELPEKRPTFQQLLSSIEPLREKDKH
# [3] = target: Ephrin type-A receptor 5 (Homo sapiens) (UniProt P54756); experiment: EPHA5 SGC Tm panel (DSF); details: for ΔTm: Compound concentration 10.0 uM
# [4] = target: SWI/SNF-related matrix-associated actin-dependent regulator of chromatin subfamily A member 2 (Homo sapiens, UniProt P51531); experiment: Measurement of the ATPase catalytic activity using the ADP-Glo detection (SMARCA2); type: functional
# [5] = target: T3, Mitogen-activated protein kinase 15 (Homo sapiens) (UniProt Q8TD08); experiment: MAPK15 SGC Tm panel (DSF); details: for ΔTm: Compound concentration 10.0 uM
# T3 sequence (whole entry): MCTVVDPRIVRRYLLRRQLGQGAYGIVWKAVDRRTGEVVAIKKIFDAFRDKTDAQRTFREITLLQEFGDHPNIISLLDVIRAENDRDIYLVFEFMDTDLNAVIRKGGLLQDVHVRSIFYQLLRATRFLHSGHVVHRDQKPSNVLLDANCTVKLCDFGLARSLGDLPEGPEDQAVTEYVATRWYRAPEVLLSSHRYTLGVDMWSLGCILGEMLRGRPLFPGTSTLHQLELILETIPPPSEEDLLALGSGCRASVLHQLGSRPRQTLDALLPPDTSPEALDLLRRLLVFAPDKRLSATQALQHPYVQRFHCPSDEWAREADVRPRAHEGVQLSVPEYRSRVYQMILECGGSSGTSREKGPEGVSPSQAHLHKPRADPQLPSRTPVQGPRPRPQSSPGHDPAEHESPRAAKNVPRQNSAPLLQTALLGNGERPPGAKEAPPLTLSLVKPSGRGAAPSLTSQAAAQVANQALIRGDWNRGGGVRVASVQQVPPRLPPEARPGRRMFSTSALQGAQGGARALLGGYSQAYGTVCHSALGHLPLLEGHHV
# [6] = target: 5-hydroxytryptamine receptor 2A (Homo sapiens) (UniProt P28223); details: Compound concentration 10.0 uM
# [7] = target: Beta-1 adrenergic receptor (Homo sapiens) (UniProt P08588); details: Compound concentration 10.0 uM
# [8] = target: T4, Ribosyldihydronicotinamide dehydrogenase [quinone] (Homo sapiens) (UniProt P16083); experiment: NQO2 SGC Tm panel (DSF); details: for ΔTm: Compound concentration 10.0 uM
# T4 sequence (whole entry): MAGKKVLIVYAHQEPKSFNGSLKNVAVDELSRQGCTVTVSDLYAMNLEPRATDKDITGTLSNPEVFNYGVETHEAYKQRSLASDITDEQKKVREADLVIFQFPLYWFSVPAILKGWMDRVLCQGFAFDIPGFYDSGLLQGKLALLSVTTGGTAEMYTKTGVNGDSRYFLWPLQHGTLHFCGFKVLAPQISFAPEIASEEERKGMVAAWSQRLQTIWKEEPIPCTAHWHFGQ
# [9] = target: D(3) dopamine receptor (Homo sapiens) (UniProt P35462); details: Compound concentration 10.0 uM
# [10] = target: Proto-oncogene tyrosine-protein kinase Src (Homo sapiens) (UniProt P12931); experiment: SRC SGC Tm panel (DSF); details: for ΔTm: Compound concentration 10.0 uM
# [11] = target: T5, Dual specificity mitogen-activated protein kinase kinase 4 (Homo sapiens) (UniProt P45985); experiment: MAP2K4 SGC Tm panel (DSF); details: for ΔTm: Compound concentration 10.0 uM
# T5 sequence (whole entry): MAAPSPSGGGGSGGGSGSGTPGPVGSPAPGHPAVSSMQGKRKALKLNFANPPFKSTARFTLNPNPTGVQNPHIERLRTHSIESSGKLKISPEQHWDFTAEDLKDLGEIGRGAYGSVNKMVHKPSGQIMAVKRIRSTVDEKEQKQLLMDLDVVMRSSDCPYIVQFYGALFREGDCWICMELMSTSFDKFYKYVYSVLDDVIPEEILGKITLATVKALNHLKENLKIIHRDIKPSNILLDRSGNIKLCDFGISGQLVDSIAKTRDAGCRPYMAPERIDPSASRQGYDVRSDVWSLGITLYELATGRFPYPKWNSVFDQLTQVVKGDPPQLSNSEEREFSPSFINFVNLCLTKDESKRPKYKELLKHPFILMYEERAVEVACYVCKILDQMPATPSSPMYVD
# [12] = target: Mitogen-activated protein kinase 8 (Homo sapiens) (UniProt P45983); experiment: MAPK8 SGC Tm panel (DSF); details: for ΔTm: Compound concentration 10.0 uM
# Sequence of Mitogen-activated protein kinase 8 (Homo sapiens) (P45983 whole entry): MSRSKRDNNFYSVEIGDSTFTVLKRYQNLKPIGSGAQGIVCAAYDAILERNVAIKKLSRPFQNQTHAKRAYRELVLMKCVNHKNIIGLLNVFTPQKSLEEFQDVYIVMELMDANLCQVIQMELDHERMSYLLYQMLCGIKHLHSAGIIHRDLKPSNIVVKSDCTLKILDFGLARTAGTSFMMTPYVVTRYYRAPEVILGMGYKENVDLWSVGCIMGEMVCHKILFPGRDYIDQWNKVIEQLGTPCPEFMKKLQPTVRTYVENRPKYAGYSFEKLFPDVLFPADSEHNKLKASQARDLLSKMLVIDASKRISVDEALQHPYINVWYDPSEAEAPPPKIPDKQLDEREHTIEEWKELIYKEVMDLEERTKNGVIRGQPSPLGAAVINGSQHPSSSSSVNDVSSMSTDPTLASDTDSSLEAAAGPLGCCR
# Sequence of Proto-oncogene tyrosine-protein kinase Src (Homo sapiens) (P12931 2-536 limits assumed): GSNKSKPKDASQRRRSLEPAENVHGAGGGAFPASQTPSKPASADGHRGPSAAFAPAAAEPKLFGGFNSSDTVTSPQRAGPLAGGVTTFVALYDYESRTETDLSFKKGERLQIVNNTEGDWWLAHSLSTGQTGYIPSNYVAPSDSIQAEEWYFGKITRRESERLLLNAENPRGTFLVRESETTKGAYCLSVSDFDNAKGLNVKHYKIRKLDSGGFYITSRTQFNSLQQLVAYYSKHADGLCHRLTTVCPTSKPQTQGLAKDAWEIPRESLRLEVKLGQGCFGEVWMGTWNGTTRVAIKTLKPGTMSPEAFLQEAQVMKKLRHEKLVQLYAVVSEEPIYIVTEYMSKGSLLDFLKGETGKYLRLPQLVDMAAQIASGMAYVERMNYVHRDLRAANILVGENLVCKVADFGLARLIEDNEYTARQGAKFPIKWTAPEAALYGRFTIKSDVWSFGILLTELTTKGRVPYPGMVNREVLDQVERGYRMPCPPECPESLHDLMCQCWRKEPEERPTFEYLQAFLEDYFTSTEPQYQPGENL
# Sequence of Ephrin type-A receptor 5 (Homo sapiens) (P54756 whole entry): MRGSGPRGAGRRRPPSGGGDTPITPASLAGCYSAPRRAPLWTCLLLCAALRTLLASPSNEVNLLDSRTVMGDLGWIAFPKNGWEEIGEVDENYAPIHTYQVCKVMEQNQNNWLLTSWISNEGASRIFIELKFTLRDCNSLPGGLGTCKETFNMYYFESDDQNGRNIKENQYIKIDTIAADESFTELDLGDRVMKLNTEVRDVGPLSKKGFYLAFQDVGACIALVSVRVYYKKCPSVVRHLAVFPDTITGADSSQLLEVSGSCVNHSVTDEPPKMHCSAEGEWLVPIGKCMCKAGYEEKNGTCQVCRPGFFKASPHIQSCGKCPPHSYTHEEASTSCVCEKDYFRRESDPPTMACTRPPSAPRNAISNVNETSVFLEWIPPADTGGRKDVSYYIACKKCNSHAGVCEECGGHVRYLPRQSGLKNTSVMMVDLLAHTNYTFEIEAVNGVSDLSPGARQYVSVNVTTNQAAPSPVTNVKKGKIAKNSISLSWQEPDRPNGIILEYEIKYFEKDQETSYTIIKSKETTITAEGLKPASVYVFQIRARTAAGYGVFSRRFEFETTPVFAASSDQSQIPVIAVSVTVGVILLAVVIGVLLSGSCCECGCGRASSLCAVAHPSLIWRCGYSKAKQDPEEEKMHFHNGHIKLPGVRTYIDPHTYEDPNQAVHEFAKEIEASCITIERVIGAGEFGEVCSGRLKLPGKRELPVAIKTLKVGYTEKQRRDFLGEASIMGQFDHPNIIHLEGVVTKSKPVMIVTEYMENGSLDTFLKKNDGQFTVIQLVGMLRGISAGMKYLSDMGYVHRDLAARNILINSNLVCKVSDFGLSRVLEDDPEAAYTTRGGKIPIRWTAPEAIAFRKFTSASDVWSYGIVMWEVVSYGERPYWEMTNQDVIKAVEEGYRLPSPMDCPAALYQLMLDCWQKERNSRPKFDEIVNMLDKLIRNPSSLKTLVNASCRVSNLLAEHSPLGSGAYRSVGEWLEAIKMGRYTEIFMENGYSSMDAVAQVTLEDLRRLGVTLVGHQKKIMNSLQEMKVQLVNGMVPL
# Sequence of D(3) dopamine receptor (Homo sapiens) (P35462 whole entry): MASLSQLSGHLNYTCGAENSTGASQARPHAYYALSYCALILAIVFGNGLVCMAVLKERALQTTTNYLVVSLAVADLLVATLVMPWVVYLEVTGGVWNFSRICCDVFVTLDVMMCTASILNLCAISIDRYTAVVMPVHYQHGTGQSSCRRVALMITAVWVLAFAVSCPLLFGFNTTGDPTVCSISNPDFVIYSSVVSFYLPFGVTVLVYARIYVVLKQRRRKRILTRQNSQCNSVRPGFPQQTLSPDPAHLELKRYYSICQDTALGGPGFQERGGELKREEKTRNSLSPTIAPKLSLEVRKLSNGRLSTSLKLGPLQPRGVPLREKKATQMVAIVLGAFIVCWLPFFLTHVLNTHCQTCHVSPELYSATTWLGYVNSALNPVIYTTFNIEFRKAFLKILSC
# Sequence of SWI/SNF-related matrix-associated actin-dependent regulator of chromatin subfamily A member 2 (P51531 whole entry): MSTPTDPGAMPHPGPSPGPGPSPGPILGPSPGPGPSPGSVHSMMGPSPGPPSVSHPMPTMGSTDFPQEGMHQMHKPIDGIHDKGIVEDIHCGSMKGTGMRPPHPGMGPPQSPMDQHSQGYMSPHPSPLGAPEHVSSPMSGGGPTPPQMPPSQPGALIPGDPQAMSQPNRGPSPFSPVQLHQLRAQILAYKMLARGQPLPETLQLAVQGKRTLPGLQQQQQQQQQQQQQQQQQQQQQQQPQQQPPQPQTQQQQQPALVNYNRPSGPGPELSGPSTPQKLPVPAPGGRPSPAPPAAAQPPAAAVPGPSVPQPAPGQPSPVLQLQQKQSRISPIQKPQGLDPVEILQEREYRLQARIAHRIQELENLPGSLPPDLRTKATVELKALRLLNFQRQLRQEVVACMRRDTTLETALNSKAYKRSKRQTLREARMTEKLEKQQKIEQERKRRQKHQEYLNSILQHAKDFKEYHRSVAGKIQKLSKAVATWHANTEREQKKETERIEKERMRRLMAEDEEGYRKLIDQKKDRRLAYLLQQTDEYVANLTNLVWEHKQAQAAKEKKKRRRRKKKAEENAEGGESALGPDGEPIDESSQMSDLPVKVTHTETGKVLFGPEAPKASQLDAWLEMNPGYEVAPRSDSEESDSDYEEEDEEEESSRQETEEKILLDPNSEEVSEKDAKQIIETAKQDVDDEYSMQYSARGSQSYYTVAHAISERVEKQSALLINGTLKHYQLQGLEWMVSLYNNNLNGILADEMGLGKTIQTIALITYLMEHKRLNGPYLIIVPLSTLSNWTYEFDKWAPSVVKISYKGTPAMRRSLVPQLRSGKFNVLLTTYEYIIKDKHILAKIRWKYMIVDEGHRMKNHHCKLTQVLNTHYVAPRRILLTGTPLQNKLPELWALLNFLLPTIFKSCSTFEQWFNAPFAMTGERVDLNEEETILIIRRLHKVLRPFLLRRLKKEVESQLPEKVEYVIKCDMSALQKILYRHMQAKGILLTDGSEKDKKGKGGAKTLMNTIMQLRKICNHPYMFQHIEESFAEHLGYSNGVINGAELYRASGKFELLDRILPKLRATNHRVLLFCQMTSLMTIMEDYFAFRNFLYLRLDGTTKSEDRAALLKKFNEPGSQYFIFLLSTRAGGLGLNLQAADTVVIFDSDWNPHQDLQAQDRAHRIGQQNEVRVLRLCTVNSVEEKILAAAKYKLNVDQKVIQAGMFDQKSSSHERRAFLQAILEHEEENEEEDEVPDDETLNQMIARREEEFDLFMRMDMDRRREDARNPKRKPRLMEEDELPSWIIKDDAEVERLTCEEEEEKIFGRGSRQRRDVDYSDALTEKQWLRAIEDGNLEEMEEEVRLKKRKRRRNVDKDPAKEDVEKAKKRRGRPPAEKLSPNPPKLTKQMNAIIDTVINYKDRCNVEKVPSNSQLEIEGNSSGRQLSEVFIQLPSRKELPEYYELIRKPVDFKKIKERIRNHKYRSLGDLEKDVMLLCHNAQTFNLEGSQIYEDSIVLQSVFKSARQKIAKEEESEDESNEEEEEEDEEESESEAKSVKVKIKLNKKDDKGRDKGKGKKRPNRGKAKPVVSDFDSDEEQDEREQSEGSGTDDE
# Sequence of 5-hydroxytryptamine receptor 2A (Homo sapiens) (P28223 whole entry): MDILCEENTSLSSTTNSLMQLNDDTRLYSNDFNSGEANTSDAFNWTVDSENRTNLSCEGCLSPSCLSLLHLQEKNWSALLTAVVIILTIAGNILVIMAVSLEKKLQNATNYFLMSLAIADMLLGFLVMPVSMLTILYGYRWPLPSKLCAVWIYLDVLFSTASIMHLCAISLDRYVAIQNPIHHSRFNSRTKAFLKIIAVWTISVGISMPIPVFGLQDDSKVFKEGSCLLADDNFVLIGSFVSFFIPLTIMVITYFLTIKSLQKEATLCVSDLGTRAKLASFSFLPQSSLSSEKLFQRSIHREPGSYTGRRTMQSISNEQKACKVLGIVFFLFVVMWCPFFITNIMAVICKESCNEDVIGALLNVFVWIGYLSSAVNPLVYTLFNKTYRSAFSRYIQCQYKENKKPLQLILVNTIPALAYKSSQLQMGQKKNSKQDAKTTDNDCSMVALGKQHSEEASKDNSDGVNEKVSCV
# Sequence of Beta-1 adrenergic receptor (Homo sapiens) (P08588 whole entry, looked up): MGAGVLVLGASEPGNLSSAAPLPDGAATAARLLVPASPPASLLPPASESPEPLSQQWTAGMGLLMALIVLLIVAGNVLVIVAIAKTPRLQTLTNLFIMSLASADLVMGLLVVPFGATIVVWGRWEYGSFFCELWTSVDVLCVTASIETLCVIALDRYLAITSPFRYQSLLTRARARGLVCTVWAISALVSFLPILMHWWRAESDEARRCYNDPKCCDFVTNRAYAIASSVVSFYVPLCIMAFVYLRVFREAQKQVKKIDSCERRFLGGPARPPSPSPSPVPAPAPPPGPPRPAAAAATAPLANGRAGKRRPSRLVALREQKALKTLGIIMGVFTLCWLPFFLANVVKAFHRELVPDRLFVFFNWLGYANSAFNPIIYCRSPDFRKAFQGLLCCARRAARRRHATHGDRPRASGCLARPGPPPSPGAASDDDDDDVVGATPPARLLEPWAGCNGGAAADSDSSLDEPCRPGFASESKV
delta Tm Staurosporine positive control [1],ΔTm [1],delta Tm Staurosporine positive control [2],ΔTm [2],delta Tm Staurosporine positive control [3],ΔTm [3],IC50 [4],inhibition [6],inhibition [7],delta Tm Staurosporine positive control [8],ΔTm [8],inhibition [9],delta Tm Staurosporine positive control [10],ΔTm [10],delta Tm Staurosporine positive control [11],ΔTm [11],delta Tm Staurosporine positive control [12],ΔTm [12],Compound,delta Tm Staurosporine positive control [5],ΔTm [5]
22.2,0.157,7.18,0.191,8.98,0.13,13.8 nM (active),4.18%,1.4%,-2.91,-0.772,13%,5.5,-0.156,10.8,0.427,7.87,0.206,COC[C@H](NC(=O)c1ccn(S(C)(=O)=O)c1)C(=O)Nc1nc(-c2cccc(-c3ccn(C)n3)c2)cs1,15,0.94
22.2,0.17,7.18,0.254,8.98,0.273,1880 nM (not active),-5.53%,3.85%,-2.91,-0.586,28.2%,5.5,0.346,10.8,0.342,7.87,0.458,C[C@H](NC(=O)c1cn(C2(C#N)CC2)cn1)C(=O)Nc1nc(-c2cccc(-c3ccn(C)n3)c2)cs1,15,1.05
